≈ marks a conversion by molar mass, not a printed value. Marks after values point to notes of the source that are not given here.
How the values were obtained:
S. aureus ATCC 29213 [1] = conditions: CLSI established QC range; cited from earlier work
Escherichia coli [2] = conditions: E. coli ATCC 25922; CLSI established QC range; cited from earlier work
Escherichia coli [3] = experiment: Broth microdilution MIC (Example 12); format: cell-based
Enterobacteriaceae [4] = conditions: E. coli (MMX 102), QC; cited from earlier work
[5] = test system: P. aeruginosa and A. baumannii; conditions: P. aeruginosa (MMX 103), QC; cited from earlier work
Pseudomonas aeruginosa [6] = experiment: Broth microdilution MIC (Example 12); format: cell-based
S. aureus ATCC 29213 [7] = experiment: Broth microdilution MIC (Example 12), ATCC QC organism; conditions: ATCC QC organism (Table 102)
[8] = test system: vancomycin-intermediate Staphylococcus aureus (VISA); experiment: Broth microdilution MIC (Example 12); format: cell-based
Klebsiella pneumoniae = experiment: Broth microdilution MIC (Example 12); format: cell-based
Acinetobacter baumannii = experiment: Broth microdilution MIC (Example 12); format: cell-based
Enterobacteriaceae [9] = experiment: Broth microdilution MIC (Example 11); format: cell-based, E. coli, K. pneumoniae, Enterobacter cloacae
Pseudomonas aeruginosa [10] = conditions: P. aeruginosa ATCC 27853; CLSI established QC range; cited from earlier work
[11] = test system: Gram-positive aerobic bacteria (S. aureus, MRSA, CA-MRSA); experiment: MIC90 against 150 clinical isolates of Gram-positive aerobic bacteria; format: cell-based; conditions: S. aureus (50 isolates)

C[C@H]1COc2c(N3CCN(C)CC3)c(F)cc3c(=O)c(C(=O)O)cn1c23 [LVX]
QC range of MIC (S. aureus ATCC 29213 [1]): (0.06-0.5) μg/mL | QC range of MIC (Escherichia coli [2]): (0.008-0.06) μg/mL | MIC (Escherichia coli [3]; E. coli ATCC 25922, ATCC QC organism (Table 102)): ≤0.008 µg/mL | MIC (Escherichia coli [3]; E. coli ATCC 35218, ATCC QC organism (Table 102)): ≤0.008 µg/mL | MIC (Escherichia coli [3]; E. coli ATCC 35218, ESBL): ≤0.008 µg/mL | MIC (Escherichia coli [3]; E. coli ATCC BAA-2471, NDM): >8 µg/mL | MIC (Escherichia coli [3]; E. coli CDC 114, ESBL/KPC): 4 µg/mL (≈ 11.1 µM) | MIC (Escherichia coli [3]; E. coli CDC 118, ESBL/NDM): 8 µg/mL (≈ 22.1 µM) | MIC (Escherichia coli [3]; E. coli CDC 435, NDM): >8 µg/mL | MIC (Escherichia coli [3]; E. coli CDC 451, KPC): >8 µg/mL | MIC (Escherichia coli [3]; E. coli CDC 503, ESBL/NDM): >8 µg/mL | MIC (Escherichia coli [3]; E. coli MMX 5745, KPC): 8 µg/mL (≈ 22.1 µM) | MIC (Escherichia coli [3]; E. coli MMX 5755, ESBL): 8 µg/mL (≈ 22.1 µM) | MIC (Escherichia coli [3]; E. coli MMX 5756, ESBL): 4 µg/mL (≈ 11.1 µM) | MIC (Escherichia coli [3]; E. coli MMX 5758, ESBL): 8 µg/mL (≈ 22.1 µM) | CLSI Quality Control Range (MIC) (Enterobacteriaceae [4]): (0.008-0.06)^a μg/mL | CLSI Quality Control Range (MIC) [5]: (0.5-4)^a | MIC (Pseudomonas aeruginosa [6]; P. aeruginosa ATCC 27853, ATCC QC organism (Table 102)): 0.5 µg/mL (≈ 1.38 µM) | MIC (Pseudomonas aeruginosa [6]; P. aeruginosa CDC 230, VIM/OXA): 8 µg/mL (≈ 22.1 µM) | MIC (Pseudomonas aeruginosa [6]; P. aeruginosa CDC 231, KPC/OXA): >8 µg/mL | MIC (Pseudomonas aeruginosa [6]; P. aeruginosa CDC 241, IMP/OXA): 8 µg/mL (≈ 22.1 µM) | MIC (Pseudomonas aeruginosa [6]; P. aeruginosa CDC 246, NDM/OXA): >8 µg/mL | MIC (Pseudomonas aeruginosa [6]; P. aeruginosa CDC 250, NDM/OXA): >8 µg/mL | MIC (Pseudomonas aeruginosa [6]; P. aeruginosa CDC 356, KPC): 0.12 µg/mL (≈ 0.332 µM) | MIC (Pseudomonas aeruginosa [6]; P. aeruginosa CDC 439, IMP): 8 µg/mL (≈ 22.1 µM) | MIC (Pseudomonas aeruginosa [6]; P. aeruginosa CDC 444, VIM): 8 µg/mL (≈ 22.1 µM) | MIC (Pseudomonas aeruginosa [6]; P. aeruginosa CDC 457, VIM): >8 µg/mL | MIC (Pseudomonas aeruginosa [6]; P. aeruginosa CDC 516, KPC/AmpC): 0.25 µg/mL (≈ 0.692 µM) | MIC (Pseudomonas aeruginosa [6]; P. aeruginosa CDC 518, KPC/AmpC): >8 µg/mL | MIC (S. aureus ATCC 29213 [7]): 0.06 µg/mL (≈ 0.166 µM) | MIC ([8]; S. aureus NRS 1 (hVISA)): 4 µg/mL (≈ 11.1 µM) | MIC ([8]; S. aureus NRS 2): 4 µg/mL (≈ 11.1 µM) | MIC ([8]; S. aureus NRS 3): >8 µg/mL | MIC ([8]; S. aureus NRS 4): 4 µg/mL (≈ 11.1 µM) | MIC ([8]; S. aureus NRS 13): 0.12 µg/mL (≈ 0.332 µM) | MIC ([8]; S. aureus NRS 18): 4 µg/mL (≈ 11.1 µM) | MIC ([8]; S. aureus NRS 22): 8 µg/mL (≈ 22.1 µM) | MIC ([8]; S. aureus NRS 24 (hVISA)): >8 µg/mL | MIC ([8]; S. aureus NRS 27): 8 µg/mL (≈ 22.1 µM) | MIC (Klebsiella pneumoniae; K. pneumoniae ATCC BAA-1705, ATCC QC organism (Table 102)): >8 µg/mL | MIC (Klebsiella pneumoniae; K. pneumoniae ATCC BAA-1705, ESBL/KPC): >8 µg/mL | MIC (Klebsiella pneumoniae; K. pneumoniae CDC 112, KPC): 4 µg/mL (≈ 11.1 µM) | MIC (Klebsiella pneumoniae; K. pneumoniae CDC 113, ESBL/KPC): 4 µg/mL (≈ 11.1 µM) | MIC (Klebsiella pneumoniae; K. pneumoniae CDC 115, ESBL/KPC): >8 µg/mL | MIC (Klebsiella pneumoniae; K. pneumoniae CDC 120, ESBL/KPC): >8 µg/mL | MIC (Klebsiella pneumoniae; K. pneumoniae CDC 126, ESBL/KPC): 0.015 µg/mL (≈ 0.0415 µM) | MIC (Klebsiella pneumoniae; K. pneumoniae CDC 129, ESBL/KPC): >8 µg/mL | MIC (Klebsiella pneumoniae; K. pneumoniae CDC 135, ESBL/VIM): >8 µg/mL | MIC (Klebsiella pneumoniae; K. pneumoniae CDC 138, ESBL/NDM): >8 µg/mL | MIC (Klebsiella pneumoniae; K. pneumoniae CDC 158, ESBL/NDM/OXA): 4 µg/mL (≈ 11.1 µM) | MIC (Klebsiella pneumoniae; K. pneumoniae MMX 9029, ESBL): 0.12 µg/mL (≈ 0.332 µM) | MIC (Acinetobacter baumannii; A. baumannii CDC 273, ESBL/OXA): >8 µg/mL | MIC (Acinetobacter baumannii; A. baumannii CDC 274, ESBL/OXA): 8 µg/mL (≈ 22.1 µM) | MIC (Acinetobacter baumannii; A. baumannii CDC 275, ESBL/OXA): 4 µg/mL (≈ 11.1 µM) | MIC (Acinetobacter baumannii; A. baumannii CDC 277, ESBL/OXA): 8 µg/mL (≈ 22.1 µM) | MIC (Acinetobacter baumannii; A. baumannii CDC 284, ESBL/OXA): 8 µg/mL (≈ 22.1 µM) | MIC (Acinetobacter baumannii; A. baumannii CDC 307, OXA): 8 µg/mL (≈ 22.1 µM) | MIC (Acinetobacter baumannii; A. baumannii CDC 308, ESBL/OXA): 4 µg/mL (≈ 11.1 µM) | MIC (Acinetobacter baumannii; A. baumannii CDC 311, OXA): 2 µg/mL (≈ 5.53 µM) | MIC (Acinetobacter baumannii; A. baumannii CDC 312, OXA): 2 µg/mL (≈ 5.53 µM) | MIC (Acinetobacter baumannii; A. baumannii CDC 313, ESBL/OXA): 2 µg/mL (≈ 5.53 µM) | MIC (Acinetobacter baumannii; A. baumannii NCTC 13304, OXA): 1 µg/mL (≈ 2.77 µM) | MIC (Enterobacteriaceae [9]; E. cloacae (MMX 5981), NDM-1, LVX-R, MEM-R, CAZ-R, GEN-R): 64 µg/mL (≈ 177 µM) | MIC (Enterobacteriaceae [9]; E. coli (MMX 102), QC): 0.015 µg/mL (≈ 0.0415 µM) | MIC (Enterobacteriaceae [9]; E. coli (MMX 5980), NDM-1, LVX-R, MEM-R, CAZ-R, GEN-R): 16 µg/mL (≈ 44.3 µM) | MIC (Enterobacteriaceae [9]; E. coli (MMX 8423), ESBL, LVX-R, CAZ-R, GEN-R): 16 µg/mL (≈ 44.3 µM) | MIC (Enterobacteriaceae [9]; E. coli (MMX 8424), ESBL, CAZ-R): 0.06 µg/mL (≈ 0.166 µM) | MIC (Enterobacteriaceae [9]; E. coli (MMX 8425), ESBL, LVX-R, CAZ-R, GEN-R): 16 µg/mL (≈ 44.3 µM) | MIC (Enterobacteriaceae [9]; K. pneumoniae (MMX 4622), KPC-2, MEM-R, CAZ-R): 1 µg/mL (≈ 2.77 µM) | MIC (Enterobacteriaceae [9]; K. pneumoniae (MMX 4623), KPC-2, MEM-R, CAZ-R, GEN-R): 1 µg/mL (≈ 2.77 µM) | MIC (Enterobacteriaceae [9]; K. pneumoniae (MMX 4653), KPC-3, LVX-R, MEM-R, CAZ-R): 64 µg/mL (≈ 177 µM) | MIC (Enterobacteriaceae [9]; K. pneumoniae (MMX 4683), KPC-2, LVX-R, MEM-R, CAZ-R): >64 µg/mL | MIC (Enterobacteriaceae [9]; K. pneumoniae (MMX 4684), ESBL, MEM-R): 0.03 µg/mL (≈ 0.083 µM) | MIC (Enterobacteriaceae [9]; K. pneumoniae (MMX 4685), ESBL, LVX-R, MEM-R, CAZ-R): 32 µg/mL (≈ 88.6 µM) | MIC (Enterobacteriaceae [9]; K. pneumoniae (MMX 4694), KPC-3, LVX-R, MEM-R, CAZ-R): 64 µg/mL (≈ 177 µM) | MIC (Enterobacteriaceae [9]; K. pneumoniae (MMX 5979), NDM-1, LVX-R, MEM-R, CAZ-R, GEN-R): >64 µg/mL | QC range of MIC (Pseudomonas aeruginosa [10]): (0.5-4) μg/mL

CC(=O)NC[C@H]1CN(c2ccc(N3CCOCC3)c(F)c2)C(=O)O1 [LZD]
QC range of MIC (S. aureus ATCC 29213 [1]): (1-4) μg/mL | MIC (S. aureus ATCC 29213 [7]): 4 µg/mL (≈ 11.9 µM) | MIC ([8]; S. aureus NRS 1 (hVISA)): 1 µg/mL (≈ 2.96 µM) | MIC ([8]; S. aureus NRS 2): 4 µg/mL (≈ 11.9 µM) | MIC ([8]; S. aureus NRS 3): 1 µg/mL (≈ 2.96 µM) | MIC ([8]; S. aureus NRS 4): 1 µg/mL (≈ 2.96 µM) | MIC ([8]; S. aureus NRS 13): 2 µg/mL (≈ 5.93 µM) | MIC ([8]; S. aureus NRS 18): 1 µg/mL (≈ 2.96 µM) | MIC ([8]; S. aureus NRS 22): 1 µg/mL (≈ 2.96 µM) | MIC ([8]; S. aureus NRS 24 (hVISA)): 2 µg/mL (≈ 5.93 µM) | MIC ([8]; S. aureus NRS 27): 2 µg/mL (≈ 5.93 µM) | MIC90 ([11]; CA-MRSA): 4 µg/mL (≈ 11.9 µM) | MIC90 ([11]; MRSA): 4 µg/mL (≈ 11.9 µM) | MIC90 ([11]; MSSA): 4 µg/mL (≈ 11.9 µM)

CN[C@H](CC(C)C)C(=O)N[C@H]1C(=O)N[C@@H](CC(N)=O)C(=O)N[C@H]2C(=O)N[C@H]3C(=O)N[C@H](C(=O)N[C@H](C(=O)O)c4cc(O)cc(O)c4-c4cc3ccc4O)[C@H](O)c3ccc(c(Cl)c3)Oc3cc2cc(c3O[C@@H]2O[C@H](CO)[C@@H](O)[C@H](O)[C@H]2O[C@H]2C[C@](C)(N)[C@H](O)[C@H](C)O2)Oc2ccc(cc2Cl)[C@H]1O [VAN]
QC range of MIC (S. aureus ATCC 29213 [1]): (0.5-2) μg/mL | MIC (S. aureus ATCC 29213 [7]): 0.5 µg/mL (≈ 0.345 µM) | MIC ([8]; S. aureus NRS 1 (hVISA)): 4 µg/mL (≈ 2.76 µM) | MIC ([8]; S. aureus NRS 2): 0.5 µg/mL (≈ 0.345 µM) | MIC ([8]; S. aureus NRS 3): 8 µg/mL (≈ 5.52 µM) | MIC ([8]; S. aureus NRS 4): 4 µg/mL (≈ 2.76 µM) | MIC ([8]; S. aureus NRS 13): 2 µg/mL (≈ 1.38 µM) | MIC ([8]; S. aureus NRS 18): 4 µg/mL (≈ 2.76 µM) | MIC ([8]; S. aureus NRS 22): 4 µg/mL (≈ 2.76 µM) | MIC ([8]; S. aureus NRS 24 (hVISA)): 2 µg/mL (≈ 1.38 µM) | MIC ([8]; S. aureus NRS 27): 2 µg/mL (≈ 1.38 µM) | MIC90 ([11]; CA-MRSA): 1 µg/mL (≈ 0.69 µM) | MIC90 ([11]; MRSA): 2 µg/mL (≈ 1.38 µM) | MIC90 ([11]; MSSA): 1 µg/mL (≈ 0.69 µM)

— patent US20230124862A1, “BISMUTH THIOL COMPOUNDS AND COMPOSITIONS AND METHODS OF TREATING MICROBIAL CO-INFECTIONS” (Microbion Corporation, priority 2020, published 2023)
